Where two headings read alike, the source gives them in different places.
What was measured:
[1] = target: ENPP1 on MDA-MB-231 cells (Homo sapiens (Human), UniProt P22413); experiment: Assay 3: inhibition of ENPP1 hydrolysis of AMP p-nitrophenyl ester on MDA-MB-231 cells
[2] = target: ENPP-1 ECD (Homo sapiens (Human), UniProt P22413); experiment: Assay 2: inhibition of ENPP1 hydrolysis of 2′,3′-cGAMP (AMP-Glo, […] enzyme)
Description: Assay 2: Compared to the conditions in Assay 1, this assay has a larger dynamic range and ensures the system is under steady-state conditions by reducing the enzyme concentration in the assay.
Test compounds were plated in a 3× dilution scheme in a 384 well plate. […] AMP Detection solution (10 μL) was added to each well, the plate centrifuged and incubated for 60 min.

[3] = read-out: Assay 3 (KI, app), apparent KI from IC50 via Cheng/Prusoff, pNP-AMP […], MDA-MB-231 cells, pH 7.4, 37° C., 3 h, unit inferred
[4] = read-out: Assay 2 (KI), inhibition of ENPP1 hydrolysis of 2′,3′-cGAMP, no unit in Table 18 (Table 17 legend for this assay uses nM)
[5] = Assay 2 (KI), inhibition of ENPP1 hydrolysis of 2′,3′-cGAMP, no unit in Table 18 (Table 17 legend for this assay uses nM)
[6] = Assay 2 (KI), ENPP1 hydrolysis of 2′,3′-cGAMP, AMP-Glo, […] ENPP-1, 24 μM cGAMP

Sequence of ENPP-1 ECD (P22413 98-925): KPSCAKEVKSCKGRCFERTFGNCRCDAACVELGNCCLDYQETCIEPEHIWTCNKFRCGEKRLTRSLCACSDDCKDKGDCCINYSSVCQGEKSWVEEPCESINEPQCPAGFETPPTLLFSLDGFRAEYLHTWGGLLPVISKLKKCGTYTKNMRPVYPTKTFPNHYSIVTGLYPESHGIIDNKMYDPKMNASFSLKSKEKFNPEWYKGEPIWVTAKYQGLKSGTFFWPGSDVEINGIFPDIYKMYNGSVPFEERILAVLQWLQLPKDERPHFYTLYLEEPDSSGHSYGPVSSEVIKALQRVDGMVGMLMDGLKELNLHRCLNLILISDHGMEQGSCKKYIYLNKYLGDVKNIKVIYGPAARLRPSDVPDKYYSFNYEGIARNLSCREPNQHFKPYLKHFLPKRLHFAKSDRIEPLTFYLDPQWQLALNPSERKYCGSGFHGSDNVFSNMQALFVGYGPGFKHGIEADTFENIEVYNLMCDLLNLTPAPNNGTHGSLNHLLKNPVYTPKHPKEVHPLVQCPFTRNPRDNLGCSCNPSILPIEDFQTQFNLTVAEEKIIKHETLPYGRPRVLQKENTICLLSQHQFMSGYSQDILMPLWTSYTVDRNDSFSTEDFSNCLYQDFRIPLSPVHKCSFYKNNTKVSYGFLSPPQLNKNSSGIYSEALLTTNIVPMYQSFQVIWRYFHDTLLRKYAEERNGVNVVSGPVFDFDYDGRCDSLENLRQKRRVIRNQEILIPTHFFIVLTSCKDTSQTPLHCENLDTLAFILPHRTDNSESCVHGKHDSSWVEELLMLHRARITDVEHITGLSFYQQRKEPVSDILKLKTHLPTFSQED
Sequence of ENPP1 on MDA-MB-231 cells (P22413 whole entry, the tested form may be a part): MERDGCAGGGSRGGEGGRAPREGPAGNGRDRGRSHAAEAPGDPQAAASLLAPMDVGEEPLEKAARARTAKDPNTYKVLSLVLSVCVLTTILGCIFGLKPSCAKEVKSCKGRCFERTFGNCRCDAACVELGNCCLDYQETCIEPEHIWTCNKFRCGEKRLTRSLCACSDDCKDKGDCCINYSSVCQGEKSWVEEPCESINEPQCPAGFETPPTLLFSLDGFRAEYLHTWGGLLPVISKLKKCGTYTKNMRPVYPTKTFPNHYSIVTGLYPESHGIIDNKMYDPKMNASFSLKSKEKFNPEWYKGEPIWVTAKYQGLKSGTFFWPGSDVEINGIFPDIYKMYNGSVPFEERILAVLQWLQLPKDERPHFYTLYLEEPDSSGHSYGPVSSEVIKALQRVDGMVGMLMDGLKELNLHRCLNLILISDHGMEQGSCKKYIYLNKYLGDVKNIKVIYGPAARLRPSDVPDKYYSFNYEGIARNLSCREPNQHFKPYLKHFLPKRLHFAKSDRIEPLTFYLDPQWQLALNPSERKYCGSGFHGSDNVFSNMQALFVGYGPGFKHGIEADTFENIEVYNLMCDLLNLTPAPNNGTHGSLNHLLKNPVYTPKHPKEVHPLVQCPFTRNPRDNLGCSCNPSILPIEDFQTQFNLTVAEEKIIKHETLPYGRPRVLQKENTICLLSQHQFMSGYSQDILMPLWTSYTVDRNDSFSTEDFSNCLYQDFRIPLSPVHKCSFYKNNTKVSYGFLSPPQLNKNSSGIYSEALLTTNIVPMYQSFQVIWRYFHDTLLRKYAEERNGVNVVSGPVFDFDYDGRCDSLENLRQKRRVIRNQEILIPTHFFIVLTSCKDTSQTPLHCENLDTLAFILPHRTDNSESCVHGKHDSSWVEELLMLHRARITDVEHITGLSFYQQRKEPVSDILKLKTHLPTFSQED

| SMILES | Ki [1, 3] [nM] | Ki [2, 4] [nM] | Ki [1] [nM] | Ki [2, 5] [nM] | further results |
| --- | --- | --- | --- | --- | --- |
| COc1cc2nccc(N3CC4(CC(C[S@](C)(=N)=O)C4)C3)c2cc1F [Compound 184b] | 58 | 2.5 |  |  |  |
| COc1cc2nccc(N3CCC4(CC3)CCN([S@@](C)(=N)=O)C4)c2cc1F [Compound 205b] | 0.12 | 0.0057 |  |  |  |
| COc1cccc2c(N3CCC(O)(C[S@@](C)(=N)=O)CC3)ncnc12 [Compound 185a] | 0.32 | 0.013 |  |  |  |
| COc1ccc2c(COc3ccc(S(C)(=N)=O)cc3)ccnc2c1 (centres unmarked) [Compound 231, imino({4-[(7-methoxyquinolin-4-yl)methoxy]phenyl})methyl-λ^6-sulfanone] |  |  | 56 | 1.2 |  |
| COc1ccc2c(OCc3cccc(S(C)(=N)=O)c3)ncnc2c1 (centres unmarked) [Compound 174, imino(3-{[(7-methoxyquinazolin-4-yl)oxy]methyl}phenyl)methyl-λ^6-sulfanone] | 240 | 5.2 |  |  |  |
| CCOc1cccc2c(N3CCC(CS(C)(=N)=O)CC3)c(C#N)cnc12 (centres unmarked) [Compound 197, 8-ethoxy-4-(4-{[imino(methyl)oxo-λ^6-sulfanyl]methyl}piperidin-1-yl)quinoline-3-carbonitrile] |  |  | 2.3 | 0.04 |  |
| COc1cccc2c(N3CCC(O)(CS(C)(=N)=O)CC3)nc(C)nc12 (centres unmarked) [Compound 199, {[4-hydroxy-1-(8-methoxy-2-methylquinazolin-4-yl)piperidin-4-yl]methyl}(imino)methyl-λ^6-sulfanone] |  |  | 8.8 | 0.43 |  |
| COc1cccc2c(N3CCC(O)(CS(C)(=N)=O)CC3)ncnc12 (centres unmarked) [Compound 185, {[4-hydroxy-1-(8-methoxyquinazolin-4-yl)piperidin-4-yl]methyl}(imino)methyl-λ^6-sulfanone] |  |  | 0.45 | 0.028 |  |
| COc1cc2nccc(N3CCC4(CC3)CCN([S@@](C)(=N)=O)C4)c2cc1OC [Compound 208a] | 55 | 1.1 |  |  |  |
| CCS(=N)(=O)N1CCC2(CCN(c3ncnc4cc(OC)c(F)cc34)CC2)C1 (centres unmarked) [Compound 221, ethyl[8-(6-fluoro-7-methoxyquinazolin-4-yl)-2,8-diazaspiro[4.5]decan-2-yl]imino-λ^6-sulfanone] |  |  | 4.6 | 0.12 |  |
| COc1cc2nccc(-c3ccc4c(c3)CN([S@@](C)(=N)=O)CC4)c2cc1OC [Compound 161a] | 5.2 | 0.015 |  |  | Ki ([2]; read-out: Assay 2 (KI), ENPP1 hydrolysis of 2′,3′-cGAMP, AMP-Glo, […] ENPP-1, 24 μM cGAMP): < 3 nM |
| COc1cccc2c(N3CCC4(CC3)CN(S(C)(=N)=O)C4)ncnc12 (centres unmarked) [Compound 236, imino[7-(8-methoxyquinazolin-4-yl)-2,7-diazaspiro[3.5]nonan-2-yl]methyl-λ^6-sulfanone] |  |  | > 580 | 86 |  |
| CCS(=N)(=O)N1CCC2(CCN(c3ncnc4cc(OC)c(OC)cc34)CC2)C1 (centres unmarked) [Compound 159, [8-(6,7-dimethoxyquinazolin-4-yl)-2,8-diazaspiro[4.5]decan-2-yl](ethyl)imino-λ^6-sulfanone] |  |  | 3.6 | 0.025 | Ki [2, 6]: < 3 nM |
| CCOc1cccc2c(N3CCC(CS(C)(=N)=O)CC3)ncnc12 (centres unmarked) [Compound 187, {[1-(8-ethoxyquinazolin-4-yl)piperidin-4-yl]methyl}(imino)methyl-λ^6-sulfanone] |  |  | 4.4 | 0.19 |  |
| COc1cc2nc(C)nc(N3CCC4(CC3)CCN(S(C)(=N)=O)C4)c2cc1OC (centres unmarked) [Compound 213, [8-(6,7-dimethoxy-2-methylquinazolin-4-yl)-2,8-diazaspiro[4.5]decan-2-yl](imino)methyl-λ^6-sulfanone] |  |  | 2.8 | 0.058 |  |
| COc1ccc2c(Oc3ccc(S(=N)(=O)CC(C)(C)O)cc3)ccnc2c1 (centres unmarked) [Compound 132, (2-hydroxy-2-methylpropyl)(imino){4-[(7-methoxyquinolin-4-yl)oxy]phenyl}-λ^6-sulfanone] |  |  | 45 | 1.1 | Ki [2, 6]: < 3 nM |

| SMILES | Ki [1, 3] [nM] | Ki [2, 4] [nM] | Ki [1] [nM] | Ki [2, 5] [nM] | further results |
| --- | --- | --- | --- | --- | --- |
| COc1cccc2c(N3CCC(O)(CS(C)(=N)=O)CC3)c(C#N)cnc12 (centres unmarked) [Compound 198, 4-(4-hydroxy-4-{[imino(methyl)oxo-λ^6-sulfanyl]methyl}piperidin-1-yl)-8-methoxyquinoline-3-carbonitrile] |  |  | 0.2 | 0.014 |  |
| CCOc1cccc2c(N3CCC(O)(CS(C)(=N)=O)CC3)ncnc12 (centres unmarked) [Compound 196, {[1-(8-ethoxyquinazolin-4-yl)-4-hydroxypiperidin-4-yl]methyl}(imino)methyl-λ^6-sulfanone] |  |  | 2.3 | 0.091 |  |
| COc1cc2ncnc(N3CCC4(CC3)CCN(S(C)(=N)=O)C4)c2cc1F (centres unmarked) [Compound 224, [8-(6-fluoro-7-methoxyquinazolin-4-yl)-2,8-diazaspiro[4.5]decan-2-yl](imino)methyl-λ^6-sulfanone] |  |  | 1.1 | 0.019 |  |
| COc1cccc2c(N3CCC4(C3)CN([S@](C)(=N)=O)C4)ncnc12 [Compound 223a] | 3.1 | 0.047 |  |  |  |
| COc1cc2nncc(N3CCC4(CC3)CCN([S@](C)(=N)=O)C4)c2cc1Cl [Compound 219a] | 1.2 | 0.071 |  |  |  |
| COc1cccc2c(N3CC4(CCN(S(C)(=N)=O)C4)C3)c(C#N)cnc12 (centres unmarked) [Compound 222, 4-{6-[imino(methyl)oxo-λ^6-sulfanyl]-2,6-diazaspiro[3.4]octan-2-yl}-8-methoxyquinoline-3-carbonitrile] |  |  | 1.1 | 0.07 |  |
| COc1cc2ncnc(N3CCC4(CC3)CCN(S(=N)(=O)CC(C)(C)O)C4)c2cc1OC (centres unmarked) [Compound 240, [8-(6,7-dimethoxyquinazolin-4-yl)-2,8-diazaspiro[4.5]decan-2-yl](2-hydroxy-2-methylpropyl)imino-λ^6-sulfanone] |  |  | 5.4 | 0.069 |  |
| COc1ccc2c(OCc3cc(F)cc([S@](C)(=N)=O)c3)ccnc2c1 [Compound 177b] | 0.48 | 0.0085 |  |  |  |
| COc1cc2ncnc(N3CC4(CC(CS(C)(=N)=O)C4)C3)c2cc1OC (centres unmarked) [Compound 237] |  |  | 1.2 | 0.028 |  |
| COc1cc2nccc(N3CCC4(CC3)CCN(S(C)(=N)=O)C4)c2cc1C#N (centres unmarked) [Compound 226, 4-{2-[imino(methyl)oxo-λ^6-sulfanyl]-2,8-diazaspiro[4.5]decan-8-yl}-7-methoxyquinoline-6-carbonitrile] |  |  | 43 | 1.2 |  |
| COc1ccc2c(Oc3ccc(S(=N)(=O)C4CN(C(C)=O)C4)cc3)ccnc2c1 (centres unmarked) [Compound 166, 1-[3-({4-[(7-methoxyquinolin-4-yl)oxy]phenyl}imino-λ^6-sulfanyl)azetidin-1-yl]ethan-1-one] |  |  | 230 | 3.1 |  |
| COc1ccc2c(OCc3cc(F)cc(S(C)(=N)=O)c3)ccnc2c1 (centres unmarked) [Compound 177, (3-fluoro-5-{[(7-methoxyquinolin-4-yl)oxy]methyl}phenyl)(imino)methyl-λ^6-sulfanone] |  |  | 1.5 | 0.03 |  |
| COc1cccc2c(N3CCC(C[S@@](C)(=N)=O)CC3)ncnc12 [Compound 146a] | 4.5 | 0.12 |  |  |  |
| COc1cccc2c(N3CCC(O)(C[S@](=N)(=O)C4CC4)CC3)ncnc12 [Compound 193b] | 0.36 | 0.012 |  |  |  |
| COc1cc2nnc(C)c(N3CCC4(CC3)CCN(S(C)(=N)=O)C4)c2cc1OC (centres unmarked) [Compound 228, [8-(6,7-dimethoxy-3-methylcinnolin-4-yl)-2,8-diazaspiro[4.5]decan-2-yl](imino)methyl-λ^6-sulfanone] |  |  | 8.7 | 0.25 |  |

From patent publication US11780849B2, “Imino sulfanone inhibitors of ENPP1” (Volastra Therapeutics, Inc., priority 2020, dated 2023)
